The compounds below were run against PD-L1 His protein / PD-1 Fc protein (Homo sapiens, UniProt Q9NZQ7) (assay: HTRF Assay (PD-1/PD-L1 interaction)). Conditions: PD-L1 His 6 nM, PD-1 Fc 6 nM.
Type: binding
Method in brief: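 Compounds tested from 20 μM down to 0.001 μM (3-fold) against 6 nM PD-L1 His and 6 nM PD-1 Fc, 15 min room temperature incubation. Detection after 1 h at room temperature with Tb cryptate anti-6HIS and XL665 anti-human IgG reagents (mixture at 0.35 nM and 6.7 nM), HTRF signal.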

PD-L1 His protein / PD-1 Fc protein, sequence (Q9NZQ7 19-238 limits assumed): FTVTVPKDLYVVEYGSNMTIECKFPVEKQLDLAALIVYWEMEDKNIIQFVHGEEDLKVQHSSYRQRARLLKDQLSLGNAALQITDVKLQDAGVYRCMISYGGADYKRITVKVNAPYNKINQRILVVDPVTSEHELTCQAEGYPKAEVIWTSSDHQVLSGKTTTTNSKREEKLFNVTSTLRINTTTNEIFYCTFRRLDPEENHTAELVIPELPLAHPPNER

SMILES	IC50
COc1nc(-c2cccc(-c3cccc(-c4ccn5c(=O)c(CN6C[C@H](O)C[C@H]6C(=O)O)cnc5c4)c3Cl)c2Cl)ccc1CNC[C@@H]1CCC(=O)N1 [Example 166, (2S,4R)-1-((8-(2,2′-Dichloro-3′-(6-methoxy-5-(((((S)-5-oxopyrrolidin-2-yl)methyl)amino)methyl)pyridin-2-yl)-[1,1′-biphenyl]-3-yl)-4-oxo-4H-pyrido[1,2-a]pyrimidin-3-yl)methyl)-4-hydroxypyrrolidine-2-carboxylic acid]	0.1 nM
COC(=O)c1cnc(-c2cnc3cc(-c4cccc(-c5cccc(-c6ccc(CNC[C@@H]7CCC(=O)N7)c(OC)n6)c5Cl)c4Cl)ccn3c2=O)[nH]1 [Example 167, methyl (S)-2-(8-(2,2′-dichloro-3′-(6-methoxy-5-((((5-oxopyrrolidin-2-yl)methyl)amino)methyl)pyridin-2-yl)-[1,1′-biphenyl]-3-yl)-4-oxo-4H-pyrido[1,2-a]pyrimidin-3-yl)-1H-imidazole-5-carboxylate]	0.5 nM
COc1nc(-c2cccc(-c3cccc(-c4ccn5c(=O)c(CN6CCC[C@@]6(C)C(=O)O)cnc5c4)c3Cl)c2Cl)ccc1CNCCO [Example 168, (S)-1-((8-(2,2′-Dichloro-3′-(5-(((2-hydroxyethyl)amino)methyl)-6-methoxypyridin-2-yl)-[1,1′-biphenyl]-3-yl)-4-oxo-4H-pyrido[1,2-a]pyrimidin-3-yl)methyl)-2-methylpyrrolidine-2-carboxylic acid]	0.2 nM
COc1nc(-c2cccc(-c3cccc(-c4ccn5c(=O)c(CN6CC[C@@H](O)C6)cnc5c4)c3Cl)c2Cl)ccc1CNC[C@@H]1CCC(=O)N1 [Example 169, 8-(2,2′-Dichloro-3′-(6-methoxy-5-(((((S)-5-oxopyrrolidin-2-yl)methyl)amino)methyl)pyridin-2-yl)-[1,1′-biphenyl]-3-yl)-3-(((R)-3-hydroxypyrrolidin-1-yl)methyl)-4H-pyrido[1,2-a]pyrimidin-4-one]	0.4 nM
COc1nc(-c2cccc(-c3cccc(-c4ccn5c(=O)c(CNC[C@@H]6CCC(=O)N6)cnc5c4)c3Cl)c2Cl)ccc1CN1CC[C@@H](O)C1 [Example 170, 8-(2,2′-Dichloro-3′-(5-(((R)-3-hydroxypyrrolidin-1-yl)methyl)-6-methoxypyridin-2-yl)-[1,1′-biphenyl]-3-yl)-3-(((((S)-5-oxopyrrolidin-2-yl)methyl)amino)methyl)-4H-pyrido[1,2-a]pyrimidin-4-one]	0.3 nM
COC(=O)C1CN=C(c2cnc3cc(-c4cccc(-c5cccc(-c6ccc(CNC[C@@H]7CCC(=O)N7)c(OC)n6)c5Cl)c4Cl)ccn3c2=O)N1 (stereo partly drawn) [Example 171, Methyl 2-(8-(2,2′-dichloro-3′-(6-methoxy-5-(((((S)-5-oxopyrrolidin-2-yl)methyl)amino)methyl)pyridin-2-yl)-[1,1′-biphenyl]-3-yl)-4-oxo-4H-pyrido[1,2-a]pyrimidin-3-yl)-4,5-dihydro-1H-imidazole-5-carboxylate]	0.2 nM
COc1nc(-c2cccc(-c3cccc(-c4ccn5c(=O)c(CN6CC[C@H](C(=O)O)C6)cnc5c4)c3Cl)c2Cl)ccc1CNCCO [Example 172, (S)-1-((8-(2,2′-Dichloro-3′-(5-(((2-hydroxyethyl)amino)methyl)-6-methoxypyridin-2-yl)-[1,1′-biphenyl]-3-yl)-4-oxo-4H-pyrido[1,2-a]pyrimidin-3-yl)methyl)pyrrolidine-3-carboxylic acid]	0.3 nM
N#CCCOc1cc(/C=C/c2cccc(-c3cccc(-c4ccn5c(=O)c(CNC[C@@H]6CCC(=O)N6)cnc5c4)c3Cl)c2Cl)c(Cl)cc1CN1CC[C@H](C(=O)O)C1 [Example 173, (S)-1-(5-Chloro-2-(2-cyanoethoxy)-4-((E)-2-(2,2′-dichloro-3′-(4-oxo-3-(((((S)-5-oxopyrrolidin-2-yl)methyl)amino)methyl)-4H-pyrido[1,2-a]pyrimidin-8-yl)-[1,1′-biphenyl]-3-yl)vinyl)benzyl)pyrrolidine-3-carboxylic acid]	0.4 nM
COc1nc(-c2cccc(-c3cccc(-c4ccn5c(=O)c(CNC[C@@H]6CCC(=O)N6)cnc5c4)c3Cl)c2Cl)ccc1CN[C@H]1CCOC[C@@H]1O [Example 174, 8-(2,2′-Dichloro-3′-(5-((((3R,4S)-3-hydroxytetrahydro-2H-pyran-4-yl)amino)methyl)-6-methoxypyridin-2-yl)-[1,1′-biphenyl]-3-yl)-3-(((((S)-5-oxopyrrolidin-2-yl)methyl)amino)methyl)-4H-pyrido[1,2-a]pyrimidin-4-one]	0.8 nM
COc1nc(-c2cccc(-c3cccc(-c4ccn5c(=O)c(CNC[C@@H]6CCC(=O)N6)cnc5c4)c3Cl)c2Cl)ccc1CN1CC[C@H](O)C1 [Example 175, 8-(2,2′-Dichloro-3′-(5-(((S)-3-hydroxypyrrolidin-1-yl)methyl)-6-methoxypyridin-2-yl)-[1,1′-biphenyl]-3-yl)-3-(((((S)-5-oxopyrrolidin-2-yl)methyl)amino)methyl)-4H-pyrido[1,2-a]pyrimidin-4-one]	0.1 nM
COc1c(CNC[C@@H]2CCC(=O)N2)ccc2nc(-c3cccc(-c4cccc(-c5ccn6c(=O)c(CNC[C@@H]7CCC(=O)N7)cnc6c5)c4Cl)c3Cl)ccc12 [Example 176, 8-(2,2′-Dichloro-3′-(5-methoxy-6-(((((S)-5-oxopyrrolidin-2-yl)methyl)amino)methyl)quinolin-2-yl)-[1,1′-biphenyl]-3-yl)-3-(((((S)-5-oxopyrrolidin-2-yl)methyl)amino)methyl)-4H-pyrido[1,2-a]pyrimidin-4-one]	250 nM
COc1nc(/C=C2\CCc3c2cccc3-c2cccc(-c3ccn4c(=O)c(CNC[C@@H]5CCC(=O)N5)cnc4c3)c2Cl)c(Cl)cc1CNC[C@@H]1CCC(=O)N1 [Example 177, 8-(2-Chloro-3-((E)-1-((3-chloro-6-methoxy-5-(((((S)-5-oxopyrrolidin-2-yl)methyl)amino)methyl)pyridin-2-yl)methylene)-2,3-dihydro-1H-inden-4-yl)phenyl)-3-(((((S)-5-oxopyrrolidin-2-yl)methyl)amino)methyl)-4H-pyrido[1,2-a]pyrimidin-4-one]	5 nM
COc1nc(-c2cccc(-c3cccc(-c4ccn5c(=O)c(CNC[C@@H]6CCC(=O)N6)cnc5c4)c3Cl)c2Cl)ccc1C1=NCC(O)CN1 (stereo partly drawn) [Example 178, 8-(2,2′-Dichloro-3′-(5-(5-hydroxy-1,4,5,6-tetrahydropyrimidin-2-yl)-6-methoxypyridin-2-yl)-[1,1′-biphenyl]-3-yl)-3-(((((S)-5-oxopyrrolidin-2-yl)methyl)amino)methyl)-4H-pyrido[1,2-a]pyrimidin-4-one]	3.5 nM
COc1nc(-c2cccc(-c3cccc(-c4ccn5c(=O)c(CNC[C@H](C)O)c(C)nc5c4)c3Cl)c2Cl)ccc1CNC[C@H](C)O [Example 181, 8-(2,2′-Dichloro-3′-(5-((((S)-2-hydroxypropyl)amino)methyl)-6-methoxypyridin-2-yl)-[1,1′-biphenyl]-3-yl)-3-((((S)-2-hydroxypropyl)amino)methyl)-2-methyl-4H-pyrido[1,2-a]pyrimidin-4-one]	3.8 nM
COc1nc(-c2cccc(-c3cccc(-c4ccn5c(=O)c(CNCCC(=O)O)cnc5c4)c3Cl)c2Cl)ccc1CNC[C@@H]1CCC(=O)N1 [Example 182, (S)-3-(((8-(2,2′-Dichloro-3′-(6-methoxy-5-((((5-oxopyrrolidin-2-yl)methyl)amino)methyl)pyridin-2-yl)-[1,1′-biphenyl]-3-yl)-4-oxo-4H-pyrido[1,2-a]pyrimidin-3-yl)methyl)amino)propanoic acid]	0.1 nM
COc1nc(-c2cccc(-c3cccc(-c4cc(C)n5c(=O)c(CNC[C@@H]6CCC(=O)N6)cnc5c4)c3Cl)c2Cl)ccc1CNC[C@@H]1CCC(=O)N1 [Example 183, 8-(2,2′-Dichloro-3′-(6-methoxy-5-(((((S)-5-oxopyrrolidin-2-yl)methyl)amino)methyl)pyridin-2-yl)-[1,1′-biphenyl]-3-yl)-6-methyl-3-(((((S)-5-oxopyrrolidin-2-yl)methyl)amino)methyl)-4H-pyrido[1,2-a]pyrimidin-4-one]	44 nM
COc1nc(-c2cccc(-c3cccc(-c4ccn5c(=O)c(CNC(C)(C)C(=O)O)cnc5c4)c3Cl)c2Cl)ccc1CNC[C@@H]1CCC(=O)N1 [Example 184, (S)-2-(((8-(2,2′-Dichloro-3′-(6-methoxy-5-((((5-oxopyrrolidin-2-yl)methyl)amino)methyl)pyridin-2-yl)-[1,1′-biphenyl]-3-yl)-4-oxo-4H-pyrido[1,2-a]pyrimidin-3-yl)methyl)amino)-2-methylpropanoic acid]	0.1 nM
COc1nc(-c2cccc(-c3cccc(-c4ccn5c(=O)c(CNC[C@H](C)O)cnc5c4)c3Cl)c2Cl)ccc1CNC[C@H](C)O [Example 185, 8-(2,2′-Dichloro-3′-(5-((((S)-2-hydroxypropyl)amino)methyl)-6-methoxypyridin-2-yl)-[1,1′-biphenyl]-3-yl)-3-((((S)-2-hydroxypropyl)amino)methyl)-4H-pyrido[1,2-a]pyrimidin-4-one]	1.2 nM
COc1nc(-c2cccc(-c3cccc(-c4ccn5c(=O)c(CNC[C@@H](C)O)cnc5c4)c3Cl)c2Cl)ccc1CNC[C@@H](C)O [Example 186, 8-(2,2′-Dichloro-3′-(5-((((R)-2-hydroxypropyl)amino)methyl)-6-methoxypyridin-2-yl)-[1,1′-biphenyl]-3-yl)-3-((((R)-2-hydroxypropyl)amino)methyl)-4H-pyrido[1,2-a]pyrimidin-4-one]	6.4 nM
COc1nc(-c2cccc(-c3cccc(-c4ccn5c(=O)c(CN(C)CC(=O)O)cnc5c4)c3Cl)c2Cl)ccc1CNC[C@@H]1CCC(=O)N1 [Example 187, (S)—N-((8-(2,2′-Dichloro-3′-(6-methoxy-5-((((5-oxopyrrolidin-2-yl)methyl)amino)methyl)pyridin-2-yl)-[1,1′-biphenyl]-3-yl)-4-oxo-4H-pyrido[1,2-a]pyrimidin-3-yl)methyl)-N-methylglycine]	0.1 nM
